Measurements from ChEMBL document CHEMBL4622928, “Discovery of 5-(4-methylpiperazin-1-yl)-2-nitroaniline derivatives as a new class of SIRT6 inhibitors” (Bioorg Med Chem Lett, 2020).

Biological target: NAD-dependent protein deacylase sirtuin-6 (Homo sapiens, UniProt Q8N6T7)
Experiment: Inhibition of SIRT6 (unknown origin) using Ac-RYQK(Ac)-AMC as substrate by Fluor de Lys assay

NAD-dependent protein deacylase sirtuin-6, sequence (Q8N6T7 whole entry): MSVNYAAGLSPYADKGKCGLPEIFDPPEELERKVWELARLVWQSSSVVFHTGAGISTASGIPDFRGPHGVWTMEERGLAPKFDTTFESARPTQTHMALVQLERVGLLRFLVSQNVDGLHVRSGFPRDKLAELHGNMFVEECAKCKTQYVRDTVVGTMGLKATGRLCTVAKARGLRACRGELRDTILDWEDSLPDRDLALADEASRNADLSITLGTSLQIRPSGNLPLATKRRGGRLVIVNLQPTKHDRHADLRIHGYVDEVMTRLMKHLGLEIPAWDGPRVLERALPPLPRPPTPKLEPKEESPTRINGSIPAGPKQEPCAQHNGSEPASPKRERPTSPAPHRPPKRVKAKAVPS

Row | SMILES | IC50
1 | COc1cc(N2CCN(C)CC2)ccc1[N+](=O)[O-] | 9.09 µM
2 | COC(=O)c1cc(N2CCN(C)CC2)ccc1[N+](=O)[O-] | 9.46 µM
3 | CN1CCN(c2ccc([N+](=O)[O-])c(C(=O)Nc3cccc4ccccc34)c2)CC1 | 16.8 µM
4 | CN1CCN(c2ccc([N+](=O)[O-])cc2)CC1 | 21.9 µM
5 | CN1CCN(c2ccc([N+](=O)[O-])c(C(F)(F)F)c2)CC1 | 21.1 µM
6 | CN1CCN(c2ccc([N+](=O)[O-])c(NC(=O)c3cc(Cl)nc4ccccc34)c2)CC1 | 12.4 µM
7 | CN1CCN(c2ccc([N+](=O)[O-])c(C(=O)Nc3ccc(Oc4ccccc4)cc3)c2)CC1 | 20.9 µM
8 | CN1CCN(c2ccc([N+](=O)[O-])c(NCc3ccccc3)c2)CC1 | 12.5 µM
9 | CN1CCN(c2ccc([N+](=O)[O-])c(C(=O)NCc3ccccc3)c2)CC1 | 17.5 µM
10 | CN1CCN(c2ccc([N+](=O)[O-])c(O)c2)CC1 | 11 µM
